SMILES strings stand for the structures.

These results are taken from the RepoRT retention time repository (doi:10.1021/acs.analchem.1c00972).

Data set [1] in a line: RP, Waters ACQUITY UPLC BEH C18, 100 × 1 mm, 1.7 µm, 50 °C, 0.3 mL/min, estimated dead time 0.17 min; A: water + 0.1% formic acid + 20 mM ammonium formate; B: methanol + 0.1% formic acid + 20 mM ammonium formate; gradient (min/%B) 0/0 15/100 21/100 22/0 30/0. The conditions noted are these: stereoisomer not certain.
Data set [2] in a line: RP, Waters ACQUITY UPLC BEH C18, 100 × 1 mm, 1.7 µm, 50 °C, 0.3 mL/min, estimated dead time 0.17 min; A: water + 10 mM ammonium bicarbonate; B: 10% water + 90% methanol + 10 mM ammonium bicarbonate; gradient (min/%B) 0/0 15/100 21/100 22/0 30/0. The settings on record: stereoisomer not certain.

In the case of `CCCOP(=S)(OCCC)SCC(=O)N1CCCCC1C` (centres undefined) [Piperophos], the LC retention time in data set [1] is 16.3 min; in data set [2], 16.6 min. For the molecule `CC(CN1c2ccccc2Sc2ccccc21)N(C)C` (centres undefined) [Promethazin], the figures for the LC retention time in data set [1] and in data set [2] were 12.5 min and 16.8 min, respectively. `O=C(O)c1nc(Cl)ccc1Cl` [Clopyralid]: the LC retention time was 6.09 min in data set [1] and 3.37 min in data set [2]. Take `C=CCOC(=O)c1ccccc1C(=O)OCC=C` [Diallylphthalate]: the LC retention time in data set [1] is 14.2 min; in data set [2], 14.5 min.

Regarding `Cc1[nH]c(=O)n(C(C)(C)C)c(=O)c1Cl` [Terbacil], the LC retention time in data set [1] is 11.8 min; in data set [2], 12 min.

On to `Nc1c(Cl)cc(C(F)(F)F)cc1Cl` [2,6-Dichloro-4-trifluoromethylaniline], for which the LC retention time was 16.2 min in data set [1] and 15.9 min in data set [2].

For the molecule `O=c1c(O)c(-c2ccc(O)cc2)oc2cc(O)cc(O)c12` [Kaempferol], the LC retention time was 12.3 min in data set [1] and 10.1 min in data set [2].

`CCOP(=S)(OCC)Oc1cc(C)nc(C(C)C)n1` [Diazinon]: the values for the LC retention time in data set [1] and in data set [2] were 15.7 min and 16 min, respectively. Take `CN(C)C(=S)SC(=S)N(C)C` [Tetramethylthiuram monosulfide]: the LC retention time in data set [1] was 9.49 min; in data set [2], 9.63 min. Turning to `CCC(=C(c1ccccc1)c1ccc(OCCN(C)C)cc1)c1ccccc1` [Tamoxifen], the LC retention time in data set [1] is 15.8 min; in data set [2] it was 18.4 min. Turning to `N#Cc1c(Cl)c(Cl)c(O)c(C(N)=O)c1Cl`, the LC retention time in data set [1] is 10 min; in data set [2], 8.11 min. For the molecule `CCOP(=S)(OCC)SCSP(=S)(OCC)OCC` [Ethion], the LC retention time in data set [2] is 17.3 min.

In the case of `CCCN(CCC)C(=O)SCc1ccccc1` [Prosulfocarb], in data set [2], the LC retention time is 16.9 min. With `CNC(=O)Oc1cc(C)c(SC)c(C)c1` [Methiocarb], in data set [2], the LC retention time was 14.3 min. As to `CCC(C)c1ccccc1OC(=O)NC` (centres undefined) [Fenobucarb], the LC retention time in data set [2] is 15 min.

`CCN(CC)C(=O)c1cccc(C)c1` [DEET]: in data set [2], the LC retention time was 13.4 min. As to `Oc1ccc(Cl)cc1Cl` [2,4-Dichlorophenol], the LC retention time in data set [2] was 12.3 min. As to `CCCCOCCOCCOCCO` [Triethylene Glycol Monobutyl Ether], the LC retention time in data set [2] is 11.5 min. Still for that read-out and setting: for `O=c1[nH]sc2ccccc12` [1,2-Benzisothiazolinone] the value was 6.97 min; for `NC(=O)N1c2ccccc2C=Cc2ccccc21` [Carbamazepin], 12.6 min; for `FC(F)(F)c1cccc(N2CCNCC2)c1` [1-(3-Trifluoromethylphenyl)-piperazine], 10.6 min.

Consider `CCC(CC)Nc1c([N+](=O)[O-])cc(C)c(C)c1[N+](=O)[O-]` [Pendimethalin], for which the LC retention time in data set [2] was 17.5 min. Turning to `CN(C)CCCC1(c2ccc(F)cc2)OCc2cc(C#N)ccc21` (centres undefined) [Citalopram], the LC retention time in data set [2] is 14.8 min. For `CCNc1nc(NC(C)C)nc(OC)n1` [Atraton], the LC retention time in data set [2] was 12.4 min.

`CNC(=O)Nc1ccc(C(C)C)cc1` [1-(4-Isopropylphenyl)-3-methyl-Harnstoff]: in data set [2], the LC retention time was 13.1 min. Same read-out and setting: the value for `C[N+](C)(C)C[C@H](O)CC(=O)[O-]` [L-Carnitin] was 9.28 min. As for `CNC(=O)Oc1ccccc1OC(C)C` [Propoxur (baygon)], the LC retention time in data set [2] is 11.9 min. The same measure, in the same setting: for `CNC(C)C(O)c1ccccc1` (centres undefined) [Ephedrine] the value was 13.1 min; for `CC12CCC(=O)C=C1CCC1C2CCC2(C)C(O)CCC12` (centres undefined) [Testosterone], 14.6 min. For the molecule `CNC(=O)Oc1cccc2c1OC(C)(C)O2` [Bendiocarb], in data set [2], the LC retention time was 11.9 min. For the molecule `Cc1ccccc1N` [o-Toluidine], the LC retention time in data set [2] was 9.21 min. In the case of `Cc1cc(Cl)ccc1N` [4-Chloro-2-methylaniline], in data set [2], the LC retention time was 12.3 min. In the case of `CCC1(c2cccc(O)c2)CCCCN(C)C1` (centres undefined) [Meptazinole], the LC retention time in data set [2] was 14.4 min. For `CN1C(=O)CN=C(c2ccccc2)c2cc(Cl)ccc21` [Diazepam], in data set [2], the LC retention time was 14.6 min. Turning to `O=S(=O)(O)c1ccccc1C=Cc1ccc(-c2ccc(C=Cc3ccccc3S(=O)(=O)O)cc2)cc1` [Fluorescent brightener 351], the LC retention time in data set [2] is 13.5 min. On the same count and under the same terms, the value for `CC1=C(C(=O)O)N2C(=O)C(NC(=O)C(N)c3ccccc3)C2SC1` (centres undefined) [Cefalexin] was 7.52 min; that for `c1ccc2scnc2c1` [Benzothiazol] was 11.1 min; that for `CC(N)C12CC3CC(CC(C3)C1)C2` (centres undefined) [Rimantadin] was 13.9 min. Turning to `O=C1CC=Cc2ncc3ccccc3c21` [Phenanthridinon], the LC retention time in data set [2] is 13.2 min.

On to `C=CC1C(OC2OC(CO)C(O)C(O)C2O)OC=C2C(=O)OCCC21` (centres undefined) [Sweroside], for which the LC retention time in data set [2] is 8.69 min. Regarding `c1ccc2ncccc2c1` [Chinolin], the LC retention time in data set [2] was 11.4 min. `Cn1sc(Cl)cc1=O` [Methylchloroisothiazolinone]: in data set [2], the LC retention time was 6.48 min.

As to `CNC(=O)ON=CC(C)(C)S(C)(=O)=O` [Aldicarb Sulfone], in data set [2], the LC retention time was 9.41 min. Regarding `CCNc1nc(Cl)nc(NC(C)C)n1` [Atrazine], the LC retention time in data set [2] is 13.1 min. As for `Nc1[nH]c(=O)ncc1F` [5-Fluorocytosine], the LC retention time in data set [2] is 5.99 min. On the same count and under the same terms, for `CSc1nnc(C(C)(C)C)c(=O)[nH]1` [Metribuzin-desamino] the value was 11.6 min. Turning to `CNC(=O)Oc1ccc(N(C)C)c(C)c1` [Aminocarb], the LC retention time in data set [2] is 12.1 min. For `Cc1nnc(-c2ccccc2)c(=O)n1N` [Metamitron], the LC retention time in data set [2] was 9 min. For `C=CC1=C(C(=O)O)N2C(=O)C(NC(=O)C(=NOCC(=O)O)c3csc(N)n3)C2SC1` (centres undefined) [Cefixim], the LC retention time in data set [2] was 5.67 min. In the case of `CC(C)N(Cc1ccccc1)C(=O)C(C)(C)C` [Tebutam], the LC retention time in data set [2] was 14.3 min.

With `Nc1ccccc1Cl` [2-Chloroaniline], the LC retention time in data set [2] is 10.6 min.

For the molecule `COC(=O)c1ccccc1S(N)(=O)=O` [Methyl 2-(aminosulfonyl)benzoate], the LC retention time in data set [2] is 8.1 min. As to `C#CC1(O)CCC2C3CCc4cc(O)ccc4C3CCC21C` (stereo not drawn) [17-alpha-Ethinylestradiol], the LC retention time in data set [2] is 14.3 min.

As to `CSc1nc(NC2CC2)nc(NC(C)(C)C)n1` [Irgarol], the LC retention time in data set [2] is 15.4 min. For the molecule `O=P(OCCCCl)(OCCCCl)OCCCCl` [Tris(3-chloropropyl) phosphate], in data set [2], the LC retention time is 14.6 min. In the case of `CC12CCC3c4ccc(O)cc4CCC3C1CC(O)C2O` (centres undefined) [Estriol], the LC retention time in data set [2] was 11.4 min.

As for `CCOP(=S)(OCC)SCn1nnc2ccccc2c1=O` [Ethyl azinphos], the LC retention time in data set [2] was 15 min. Consider `Cc1ccc(NC=O)c(C)c1` [2,4-Dimethylformanilide], for which the LC retention time in data set [2] was 11.2 min. Regarding `NC(=O)N1c2ccccc2CC(=O)c2ccccc21` [Oxcarbazepine], the LC retention time in data set [2] was 11.7 min. Regarding `CCNc1ccccc1` [N-Ethylaniline], the LC retention time in data set [2] was 12.2 min. With `NS(=O)(=O)c1ccccc1` [Benzenesulfonamide], the LC retention time in data set [2] was 12.8 min. For `CCNc1nc(Cl)nc(NC(C)(C)C)n1` [Terbuthylazine], the LC retention time in data set [2] is 14.4 min.

On to `CN(C)CCC=C1c2ccccc2CCc2ccccc21` [Amitriptyline], for which the LC retention time in data set [2] is 17.4 min. `CC=C1N(C)C(C)CC1(c1ccccc1)c1ccccc1` (centres undefined) [EDDP]: in data set [2], the LC retention time was 17.4 min.

In the case of `FC(F)C(F)(F)OCC(Cn1cncn1)c1ccc(Cl)cc1Cl` (centres undefined) [Tetraconazole], the LC retention time in data set [2] is 15.3 min. Take `COc1ccc2c3c1OC1C(=O)CCC4C(C2)N(C)CCC314` (centres undefined) [Hydrocodone]: the LC retention time in data set [2] is 12.1 min. In the case of `Nc1ccn(C2OC(CO)C(O)C2(F)F)c(=O)n1` (centres undefined) [Gemcitabine], the LC retention time in data set [2] was 3.38 min. Turning to `COC(=O)Nc1cccc(OC(=O)Nc2cccc(C)c2)c1` [Phenmedipham], in data set [2], the LC retention time was 13.6 min. The same measure, in the same setting: for `CNC(=C[N+](=O)[O-])NCCSCc1ccc(CN(C)C)o1` [Ranitidine] the value was 10.2 min. In the case of `Cc1cc(C(C)(C)C)c(O)c(C(C)(C)C)c1` [2,6-Di-tert.-butyl-4-methylphenol], in data set [2], the LC retention time is 18.1 min. `CCCCOC(=O)C=Cc1ccccc1` [Butyl cinnamate]: in data set [2], the LC retention time is 14 min. On to `CC1C(c2ccc(Cl)cc2)SC(=O)N1C(=O)NC1CCCCC1` (centres undefined) [Hexythiazox], for which, in data set [2], the LC retention time was 17.6 min. In the case of `Nc1ccccc1C(=O)O` [Anthranilic acid], in data set [2], the LC retention time was 2.1 min. On the same count and under the same terms, the value for `CC(Cn1cnc2c(N)ncnc21)OCP(=O)(O)O` (centres undefined) [Tenofovir] was 2.02 min; that for `CCOc1nc2cccc(C(=O)O)c2n1Cc1ccc(-c2ccccc2-c2noc(=O)[nH]2)cc1` [Azilsartan] was 9.52 min; that for `CCN(CC)CCNC(=O)c1cc(Cl)c(N)cc1OC` [Metoclopramide] was 12.3 min.

For the molecule `CCC(CO)NCCNC(CC)CO` (centres undefined) [Ethambutol], the LC retention time in data set [2] was 8.12 min. Turning to `O=C(OCc1ccccc1)c1ccccc1` [Benzoic acid benzyl ester], the LC retention time in data set [2] is 16.3 min.
